Measured values: article PMC8445441, “Elucidating the mechanism by which synthetic helper peptides sensitize Pseudomonas aeruginosa to multiple antibiotics” (PLoS Pathogens, 2021)
Like-named read-outs stand apart in the source and are kept apart here. Blank lines part the entries; values can stand above or below the compound they belong to.

Legend:
[1] = test system: clinical P. aeruginosa isolates; test: microbe, parasite or virus in culture; conditions: Pseudomonas aeruginosa, 18 h
In short: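 Broth microdilution per CLSI in MHB, two-fold drug dilutions mixed with an equal volume of bacteria at about 1 × 10^6 CFU/mL. After 18 h at 37 °C, MIC taken as the lowest concentration with no visible growth; run in triplicate.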

P. aeruginosa PAK = test: microbe, parasite or virus in culture; set-up: MICa: MIC of the antibiotic / MICac: MIC of the antibiotic in the combination: unit not given beside the values; conditions: for FICI: antibiotic + D-11 (MICb/MICbc 64/4); for MICac: MIC of the antibiotic in the combination: with D-11 at MICbc 4
In short: (§1)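 Two-fold serial dilutions in MHB received an equal volume of bacteria (suspension about 1 × 10^6 CFU/mL). Plates were held 18 h at 37 °C, then read visually for growth. Triplicate, CLSI-based.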

P. aeruginosa NR-31040 = test: microbe, parasite or virus in culture; set-up: MICa: MIC of the antibiotic / MICac: MIC of the antibiotic in the combination: unit not given beside the values; conditions: strain NR-31040; for FICI: antibiotic + D-11 (MICb/MICbc 128/4); for MICa: MIC of the antibiotic: antibiotic alone; for MICa: MIC of the antibiotic / MICac: MIC of the antibiotic in the combination: unit not given; for MICac: MIC of the antibiotic in the combination: with D-11 at MICbc 4
In short: as §1

P. aeruginosa ATCC27853 = test: microbe, parasite or virus in culture; set-up: MICa: MIC of the antibiotic / MICac: MIC of the antibiotic in the combination: unit not given beside the values; conditions: for FICI: antibiotic + D-11 (MICb/MICbc 32/4); for MICac: MIC of the antibiotic in the combination: with D-11 at MICbc 4
In short: as §1

P. aeruginosa PA14 = test: microbe, parasite or virus in culture; set-up: MICa: MIC of the antibiotic / MICac: MIC of the antibiotic in the combination: unit not given beside the values; conditions: for FICI: antibiotic + D-11 (MICb/MICbc 128/4); for MICac: MIC of the antibiotic in the combination: with D-11 at MICbc 4
In short: as §1

P. aeruginosa NR-31041 = test: microbe, parasite or virus in culture; set-up: MICa: MIC of the antibiotic / MICac: MIC of the antibiotic in the combination: unit not given beside the values; conditions: for FICI: antibiotic + D-11 (MICb/MICbc 64/4); for MICac: MIC of the antibiotic in the combination: with D-11 at MICbc 4
In short: as §1

P. aeruginosa AUMC-Pa-1 = conditions: strain AUMC-Pa-1; antibiotic + D-11 (MICb/MICbc 128/4)
In short: as §1

P. aeruginosa AUMC-Pa-2 = conditions: strain AUMC-Pa-2; antibiotic + D-11 (MICb/MICbc 64/4)
In short: as §1

P. aeruginosa AUMC-Pa-3 = test: microbe, parasite or virus in culture; conditions: for FICI: antibiotic + D-11 (MICb/MICbc 128/4); for MICac: MIC of the antibiotic in the combination: with D-11 at MICbc 4
In short: as §1

P. aeruginosa AUMC-Pa-4 = test: microbe, parasite or virus in culture; conditions: for FICI: antibiotic + D-11 (MICb/MICbc 128/4); for MICac: MIC of the antibiotic in the combination: with D-11 at MICbc 4
In short: as §1

P. aeruginosa AUMC-Pa-6 = test: microbe, parasite or virus in culture; conditions: strain AUMC-Pa-6; for FICI: antibiotic + D-11 (MICb/MICbc 64/4); for MICa: MIC of the antibiotic: antibiotic alone; for MICa: MIC of the antibiotic / MICac: MIC of the antibiotic in the combination: unit not given; for MICac: MIC of the antibiotic in the combination: with D-11 at MICbc 4
In short: as §1

P. aeruginosa PAO1 = test: microbe, parasite or virus in culture
In short: as §1

P. aeruginosa AUMC-Pa-5 = test: microbe, parasite or virus in culture; conditions: for FICI: antibiotic + D-11 (MICb/MICbc 64/4); for MICac: MIC of the antibiotic in the combination: with D-11 at MICbc 4
In short: as §1

P. aeruginosa HM-214 = conditions: strain HM-214; antibiotic + D-11 (MICb/MICbc 128/4)
In short: as §1

[2] = strain ATCC27853, unit not given
[3] = strain NR-31041, unit not given
[4] = strain AUMC-Pa-3, unit not given
[5] = strain AUMC-Pa-4, unit not given
[6] = strain AUMC-Pa-5, unit not given

MIC ([1]; read-out: Antibiotic sensibility (MIC) of clinical P. aeruginosa isolate AUMC-Pa-1, strain AUMC-Pa-1, antibiotic alone): 128 µM
MIC ([1]; read-out: Antibiotic sensibility (MIC) of clinical P. aeruginosa isolate AUMC-Pa-2, strain AUMC-Pa-2, antibiotic alone): 128 µM
MIC ([1]; read-out: Antibiotic sensibility (MIC) of clinical P. aeruginosa isolate AUMC-Pa-3, strain AUMC-Pa-3, antibiotic alone): 128 µM
MIC ([1]; read-out: Antibiotic sensibility (MIC) of clinical P. aeruginosa isolate AUMC-Pa-4, strain AUMC-Pa-4, antibiotic alone): 128 µM
MIC ([1]; read-out: Antibiotic sensibility (MIC) of clinical P. aeruginosa isolate AUMC-Pa-5, strain AUMC-Pa-5, antibiotic alone): > 128 µM
MIC ([1]; read-out: Antibiotic sensibility (MIC) of clinical P. aeruginosa isolate AUMC-Pa-6, strain AUMC-Pa-6, antibiotic alone): 128 µM
MIC ([1]; read-out: Antibiotic sensibility (MIC) of clinical P. aeruginosa isolate HM-214, strain HM-214, antibiotic alone): 128 µM
MIC ([1]; read-out: Antibiotic sensibility (MIC) of clinical P. aeruginosa isolate NR-31040, strain NR-31040, antibiotic alone): 128 µM
MIC ([1]; read-out: Antibiotic sensibility (MIC) of clinical P. aeruginosa isolate NR-31041, strain NR-31041, antibiotic alone): 128 µM
MICa: MIC of the antibiotic (P. aeruginosa PAK; strain PAK, antibiotic alone, unit not given): 128
MICac: MIC of the antibiotic in the combination (P. aeruginosa PAK; strain PAK, unit not given): 16
MICa: MIC of the antibiotic (P. aeruginosa NR-31040): 128
MICac: MIC of the antibiotic in the combination (P. aeruginosa NR-31040): 32
MICa: MIC of the antibiotic (P. aeruginosa ATCC27853; strain ATCC27853, antibiotic alone, unit not given): 128
MICac: MIC of the antibiotic in the combination (P. aeruginosa ATCC27853; [2]): 8
MICa: MIC of the antibiotic (P. aeruginosa PA14; strain PA14, antibiotic alone, unit not given): 128
MICac: MIC of the antibiotic in the combination (P. aeruginosa PA14; strain PA14, unit not given): 32
MICa: MIC of the antibiotic (P. aeruginosa NR-31041; strain NR-31041, antibiotic alone, unit not given): 128
MICac: MIC of the antibiotic in the combination (P. aeruginosa NR-31041; [3]): 16
MICa: MIC of the antibiotic (P. aeruginosa AUMC-Pa-3; strain AUMC-Pa-3, antibiotic alone, unit not given): 128
MICac: MIC of the antibiotic in the combination (P. aeruginosa AUMC-Pa-3; [4]): 8
MICa: MIC of the antibiotic (P. aeruginosa AUMC-Pa-4; strain AUMC-Pa-4, antibiotic alone, unit not given): 128
MICac: MIC of the antibiotic in the combination (P. aeruginosa AUMC-Pa-4; [5]): 32
MICa: MIC of the antibiotic (P. aeruginosa AUMC-Pa-6): 128
MICac: MIC of the antibiotic in the combination (P. aeruginosa AUMC-Pa-6): 32
MICa: the MIC of antibiotics (P. aeruginosa PAO1; S1 Table, macrolide alone, PAO1): 128 µM
MIC (P. aeruginosa AUMC-Pa-5; Pseudomonas aeruginosa, AUMCPA5, 18 h, read-out: MICa: MIC of the antibiotic): > 128 µM
MICac: MIC of the antibiotic in the combination (P. aeruginosa AUMC-Pa-5; [6]): 32
Compound: CC[C@H]1OC(=O)[C@H](C)[C@@H](O[C@H]2C[C@@](C)(OC)[C@@H](O)[C@H](C)O2)[C@H](C)[C@@H](O[C@@H]2O[C@H](C)C[C@H](N(C)C)[C@H]2O)[C@](C)(OC)C[C@@H](C)C(=O)[C@H](C)[C@@H](O)[C@]1(C)O [Clarithromycin]
FICI (P. aeruginosa PAK; strain PAK): 0.188
FICI (P. aeruginosa NR-31040): 0.281
FICI (P. aeruginosa ATCC27853; strain ATCC27853): 0.188
FICI (P. aeruginosa PA14; strain PA14): 0.281
FICI (P. aeruginosa NR-31041; strain NR-31041): 0.188
FICI (P. aeruginosa AUMC-Pa-1): 0.156
FICI (P. aeruginosa AUMC-Pa-2): 0.313
FICI (P. aeruginosa AUMC-Pa-3; strain AUMC-Pa-3): 0.094
FICI (P. aeruginosa AUMC-Pa-4; strain AUMC-Pa-4): 0.281
FICI (P. aeruginosa AUMC-Pa-6): 0.313
FICI (P. aeruginosa AUMC-Pa-5; strain AUMC-Pa-5): 0.188
FICI (P. aeruginosa HM-214): 0.281

Compound: CO[C@H]1[C@H](OC(=O)c2ccc(C)[nH]2)[C@H](O)[C@@H](Oc2ccc3c(O)c(NC(=O)c4c[nH]c(C(=O)Nc5c(O)c6ccc(O[C@H]7OC(C)(C)[C@@H](OC)[C@H](OC(=O)c8ccc(C)[nH]8)[C@@H]7O)c(C)c6oc5=O)c4C)c(=O)oc3c2C)OC1(C)C [Coumermycin A1]
MIC ([1]; read-out: Antibiotic sensibility (MIC) of clinical P. aeruginosa isolate AUMC-Pa-1): 8 µM
MIC ([1]; read-out: Antibiotic sensibility (MIC) of clinical P. aeruginosa isolate AUMC-Pa-2): 8 µM
MIC ([1]; read-out: Antibiotic sensibility (MIC) of clinical P. aeruginosa isolate AUMC-Pa-3): 8 µM
MIC ([1]; read-out: Antibiotic sensibility (MIC) of clinical P. aeruginosa isolate AUMC-Pa-4): 8 µM
MIC ([1]; read-out: Antibiotic sensibility (MIC) of clinical P. aeruginosa isolate AUMC-Pa-5): 8 µM
MIC ([1]; read-out: Antibiotic sensibility (MIC) of clinical P. aeruginosa isolate AUMC-Pa-6): 8 µM
MIC ([1]; read-out: Antibiotic sensibility (MIC) of clinical P. aeruginosa isolate HM-214): 8 µM
MIC ([1]; read-out: Antibiotic sensibility (MIC) of clinical P. aeruginosa isolate NR-31040): 8 µM
MIC ([1]; read-out: Antibiotic sensibility (MIC) of clinical P. aeruginosa isolate NR-31041): 8 µM
MIC (P. aeruginosa PAK; Pseudomonas aeruginosa, 18 h, read-out: MICa: MIC of the antibiotic): 8 µM
FICI (P. aeruginosa PAK; strain PAK): 0.125
MICac: MIC of the antibiotic in the combination (P. aeruginosa PAK; strain PAK, unit not given): 0.5
FICI (P. aeruginosa NR-31040): 0.281
MICa: MIC of the antibiotic (P. aeruginosa NR-31040): 8
MICac: MIC of the antibiotic in the combination (P. aeruginosa NR-31040): 2
MIC (P. aeruginosa ATCC27853; Pseudomonas aeruginosa, ATCC27853, 18 h, read-out: MICa: MIC of the antibiotic): 8 µM
FICI (P. aeruginosa ATCC27853; strain ATCC27853): 0.156
MICac: MIC of the antibiotic in the combination (P. aeruginosa ATCC27853; [2]): 0.5
MIC (P. aeruginosa PA14; Pseudomonas aeruginosa, PA14, 18 h, read-out: MICa: MIC of the antibiotic): 8 µM
FICI (P. aeruginosa PA14; strain PA14): 0.094
MICac: MIC of the antibiotic in the combination (P. aeruginosa PA14; strain PA14, unit not given): 0.5
MIC (P. aeruginosa NR-31041; Pseudomonas aeruginosa, NR31041, 18 h, read-out: MICa: MIC of the antibiotic): 8 µM
FICI (P. aeruginosa NR-31041; strain NR-31041): 0.078
MICac: MIC of the antibiotic in the combination (P. aeruginosa NR-31041; [3]): 0.125
FICI (P. aeruginosa AUMC-Pa-1): 0.039
FICI (P. aeruginosa AUMC-Pa-2): 0.094
MIC (P. aeruginosa AUMC-Pa-3; Pseudomonas aeruginosa, AUMCPA3, 18 h, read-out: MICa: MIC of the antibiotic): 8 µM
FICI (P. aeruginosa AUMC-Pa-3; strain AUMC-Pa-3): 0.035
MICac: MIC of the antibiotic in the combination (P. aeruginosa AUMC-Pa-3; [4]): 0.031
MIC (P. aeruginosa AUMC-Pa-4; Pseudomonas aeruginosa, AUMCPA4, 18 h, read-out: MICa: MIC of the antibiotic): 8 µM
FICI (P. aeruginosa AUMC-Pa-4; strain AUMC-Pa-4): 0.094
MICac: MIC of the antibiotic in the combination (P. aeruginosa AUMC-Pa-4; [5]): 0.5
FICI (P. aeruginosa AUMC-Pa-6): 0.313
MICa: MIC of the antibiotic (P. aeruginosa AUMC-Pa-6): 8
MICac: MIC of the antibiotic in the combination (P. aeruginosa AUMC-Pa-6): 2
reduction of the MICs (P. aeruginosa PAO1; PAO1, in the presence of 4 μM of D-11): 512 fold
MIC (P. aeruginosa PAO1; Pseudomonas aeruginosa, PAO1, 18 h, read-out: MICa: the MIC of antibiotics): 8 µM
FICI (P. aeruginosa PAO1; S3 Table, PAO1, antibiotic + 2 μM D-11): 0.078
MICac: the MIC for the antibiotic in the combination (P. aeruginosa PAO1; S3 Table, PAO1, with 2 μM D-11): 0.125 µM
MICac: the MIC for the antibiotic in the combination (P. aeruginosa PAO1; S3 Table, PAO1, with 4 μM D-11): 0.01562 µM
MICa: the MIC of antibiotics (P. aeruginosa PAO1; S3 Table, antibiotic alone, PAO1): 8 µM
FICI (P. aeruginosa AUMC-Pa-5; strain AUMC-Pa-5): 0.313
MICa: MIC of the antibiotic (P. aeruginosa AUMC-Pa-5; strain AUMC-Pa-5, antibiotic alone, unit not given): 8
MICac: MIC of the antibiotic in the combination (P. aeruginosa AUMC-Pa-5; [6]): 2
FICI (P. aeruginosa HM-214): 0.281
